Results reported in paper PMC2853575, “Discovery of Selective Inhibitors Against EBNA1 via High Throughput In Silico Virtual Screening” (PLoS ONE, 2010).
pIC50: −log10 of the molar value. Values joined by “and” are separate entries in the source; they are usually repeats but may differ in a detail not shown here. Identical values can stand only once. Like-named read-outs stand apart in the source and are kept apart here.

Key:
[1] = molecular target: T1, Zta (Epstein-Barr virus, UniProt P03206); assay: Fluorescence polarization (FP) assay of Zta-DNA binding (specificity control); details: for pIC50: inhibitor 833 to 7 µM, 2-fold dilutions, 300 nM Zta, read-out: IC50, inhibition of Zta-DNA binding (FP, Fig. 3 panel B)
T1 construct: 300 nM ZTA full length purified recombinant protein; Hexa-His; made in house; host or cells: E. coli
Protocol: (§1) The EBNA1 DNA binding domain (DBD) (aa 454–607) with a hexa-histidine amino-terminal fusion protein was expressed in E. coli and purified over Ni-NTA agarose according to manufacturers recommendations (Qiagen). The protein was purified from four liters of E. coli to generate ∼20 mg of highly purified EBNA1 protein, estimated to be >90% pure. Purified protein was then dialyzed into a buffer consisting of 200 mM NaCl, 20 mM, Tris-HCl pH 7.4 and 20% Glycerol. Hexa-His tagged Zta was purified from E. coli to near homogeneity, similar to EBNA1 protein. Purified Zta was dialyzed into 500 mM NaCl, Tris-HCl pH 7.4 and 20% Glycerol.
(§2) A reaction mix containing 200 mM NaCl, 20 mM Tris-Cl pH 7.4, 1 mM DTT, 10 ug/mL BSA, 10 nM Cy5 5′ modified EBNA1 (Cy5-GGGTAGCATATGCTATCTagatagcatatgctaccc) or ZTA (Cy5-CACTGACTCATTaatgagtcagtg binding site) oligonucleotide hairpins (purchased from IDT) and 246 nM EBNA1 DBD (aa 459–607) or 300 nM ZTA full length purified recombinant protein was incubated for 20 minutes at room temperature prior to dispensing (BioTek MicroFlo Select) 30 uL to each well of a 384 well black opaque microtiter plate containing the test compounds. Test plates were centrifuged at 165×g prior to fluoresence polarizaration measurements in an Envision Xciter multilable plate reader (Perkin Elmer) using a Cy5 FP 620 excitation and Cy5 FP P/S-pol 688 emission filters.
(§3) To determine IC50s, an 11- point series of 2-fold dilutions in DMSO was performed in duplicate starting at an initial concentration of 50 mM using a Janus Verispan (Perkin Elmer) to create a master plate. From this master plate 0.5 uL was transfered to black opaque 384 well Optiplate (Perkin Elmer) using a Janus MDT (Perkin Elmer) or to microfuge tubes by hand. The plate or microfuge tubes were assayed using the FP and EMSA protocols described above. […] The data was calculated as percentage of EBNA1 binding activity and then plotted versus the log of the concentration of inhibitor. Using GraphPad Prism 5.0 software the plotted data was fit with a Hill-Slope dose-response curve to calculate the relative IC50.

[2] = molecular target: T2, EBNA1 DNA binding domain (DBD) (Epstein-Barr virus, UniProt P03211); assay: EMSA of EBNA1-DNA binding; details: Fig. 3
T2 construct: 246 nM EBNA1 DBD (aa 459–607); hexa-histidine (N); made in house; host or cells: E. coli
Protocol: (§4) An EMSA reaction buffer was prepared containing 20% Glycerol, 200 mM NaCl, 20 mM Tris-Cl pH 7.4, 1 mM DTT, 10 ug/mL BSA, 10 nM Cy5 oligonucleotide probe and with or without 246 nM EBNA1 DBD or 300 nM Zta full length purified recombinant protein. This solution was incubated for 20 minutes at room temperature to ensure binding. 30 uL of this solution was dispensed to eppendorf tubes containing 0.5 uL of a test compound in DMSO and mixed. Samples were then loaded onto a 6% polyacrylamide gel in 1/2X Tris-Borate buffer and electrophoresed for 90 min at 170 V. The gel was then scanned for flouresence using at Typhoon Imager (GE Healthcare).
as §3

[3] = molecular target: T2, EBNA1 DNA binding domain (DBD); assay: Fluorescence polarization (FP) assay of EBNA1-DNA binding
Protocol: as §1, §2, §3

[4] = system: Zta transactivation of BHLF1 promoter; assay: Zta transcription activation assay (BHLF1-Luciferase reporter) in HEK293T cells; assay type: cell-based, Epstein-Barr virus; details: for inhibition at 5 µM: human gammaherpesvirus 4, HEK-293T, 48 h, read-out: Inhibition of Zta transactivation
Protocol: (§5) SC7, SC11, and SC19 were assayed for their ability to inhibit EBNA1 in two cell-based assays. Transcription activation of the EBV Cp promoter by EBNA1 is known to be essential for B-cell immortalization. We therefore assayed the effect of compounds to inhibit EBNA1 transcription activation of Cp using a luciferase reporter-based assay in transiently transfected HEK293T cells (Fig. 4). The luciferase reporter plasmid consisted of a ∼2 kb region of EBV containing both OriP and Cp fused upstream of the luciferase gene. Cotransfection of this plasmid with an EBNA1 expression plasmid produced a 4–5 fold increase in luciferase activity relative to control expression vector lacking EBNA1 (data not shown). Incubation of transfected cells with control vehicle DMSO had no effect on EBNA1 transcription activation. […] As a control for specificity, the same compounds were assayed for their inhibition of Zta transcription activation. Zta is a potent transcription activator of the EBV BHLF1 promoter. We therefore assayed these compounds for their effect on Zta transactivation of BHLF1 promoter fused to luciferase reporter gene.
(§6) HEK293T cells (purchased from ATCC) were seeded in 24-well plates at a density of 50,000 cells/well in DMEM media with 10% FBS. Following an 18 hr incubation at 37°C, cells were transfected using 2 µl of lipofectamine with 0.4 ug/well of a pCMV-FLAG-EBNA1, pCMV-FLAG-ZTA (N362) or a control pCMV-FLAG vector and 0.2 ug/well of either a Cp-Luciferase (EBNA1-reporter) or a HP-Luciferase (Zta-reporter) plasmid. All samples were cotransfected with 100 ng of Renilla expression vector as an internal control for transfection efficiency. After 6 hrs the transfection media was replaced and test compounds were added to achieve a final concentration of 5 uM. Cells were incubated at 37°C for 48 hrs and then harvested. Cells were lysed and prepared for analysis using the Promega Dual Reporter system and luminescence was measured using a Perkin Elmer Wallac Victor^2 1420 Multilabel reader.

[5] = molecular target: T1, Zta; assay: EMSA of Zta-DNA binding (specificity control)
Protocol: as §4, §3

[6] = system: EBNA1 transcription activation of Cp; assay: EBNA1 transcription activation assay (OriP-Cp-Luciferase reporter) in HEK293T cells; assay type: cell-based, Epstein-Barr virus; details: 5 µM compound, 48 hrs, transfected HEK293T cells
Protocol: as §5, §6

[7] = system: EBV genome copy number in the Raji Burkitt lymphoma cell line; assay: Raji EBV genome copy number assay; assay type: cell-based, Epstein-Barr virus; details: six days, Raji cells, real time PCR EBV DNA (DS) relative to actin
Protocol: To further evaluate the ability of these compounds to inhibit the EBNA1 function required for EBV genome replication, we assayed their effect on EBV genome copy number in the Raji Burkitt lymphoma cell line (Fig. 5). Raji cells typically contain ∼100 copies of the EBV genome per cell. […] Therefore, we assessed the effects of HU, SC7, SC11, and SC19 on EBV copy number in Raji cells. Cells were treated with 10 µM SC7, SC11, SC19 or with 100 µM HU for six days. The EBV genome copy number was determined by real time PCR for EBV DNA (DS) relative to cellular actin DNA.
Raji cells (purchased from ATCC) were grown at 5×10^6 cells/ml in RPMI media supplemented with 10% FBS and 10 mM Streptomycin and 10 mm Penicillin. Test compounds were added to achieve a final concentration of 10 uM. Cells were grown at 37°C for three days and then passaged 1∶10 into fresh media with the same concentration of drug. After a second 3-day incubation cells were harvested and the DNA was isolated using ChIP Lysis Buffer followed by sonication, phenol∶chloroform extraction, and ethanol precipitation. Relative EBV DNA copy number was quantified by real-time PCR with primers for cellular actin and the EBV dyad-symmetry region, as described previously.

[8] = inhibitor 833 to 7 µM, 2-fold dilutions, 246 nM EBNA1 DBD, read-out: IC50, inhibition of EBNA1-DNA binding (FP, Fig. 3 panel A)
[9] = purified EBNA1 DBD, Cy5 DNA hairpin, read-out: IC50, inhibition of EBNA1-DNA binding in FP assay

T2 sequence (P03211 459-607): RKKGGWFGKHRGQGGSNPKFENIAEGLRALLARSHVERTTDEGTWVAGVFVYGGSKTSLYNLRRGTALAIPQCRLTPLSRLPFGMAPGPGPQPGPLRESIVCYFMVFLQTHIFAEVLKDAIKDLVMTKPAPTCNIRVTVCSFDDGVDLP
T1 sequence (P03206 whole entry): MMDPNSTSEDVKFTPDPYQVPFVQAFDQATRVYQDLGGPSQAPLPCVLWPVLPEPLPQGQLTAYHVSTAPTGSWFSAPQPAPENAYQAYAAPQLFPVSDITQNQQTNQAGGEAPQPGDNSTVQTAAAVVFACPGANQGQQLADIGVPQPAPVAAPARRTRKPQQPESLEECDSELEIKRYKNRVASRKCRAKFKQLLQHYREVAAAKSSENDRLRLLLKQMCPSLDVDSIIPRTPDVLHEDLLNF

Structure (SMILES): CC1CCc2c(sc3nc(SCc4ccc5c(c4)OCO5)nc(N)c23)C1 (centres unmarked) [SC27]
- pIC50 [1]: 3.71
- Inhibition of EBNA1-DNA binding in EMSA [2]: highly specific inhibition of EBNA1
- pIC50 [3, 8]: 3.26
- IC50, inhibition of EBNA1-DNA binding in FP assay ([3]; purified EBNA1 DBD, Cy5 DNA hairpin): did not perform well in the FP assay

Structure (SMILES): CC(=O)Oc1ccc(N(C(C)=O)S(=O)(=O)c2ccc3ccccc3c2)cc1Br [SC7]
- inhibition at 5 µM [4]: ~60%
- Inhibition of Zta-DNA binding in FP assay [1]: no significant inhibition
- pIC50 [1]: 3.52
- Inhibition of Zta-DNA binding in EMSA [5]: no significant inhibition
- pIC50 [3, 8]: 4.62
- pIC50 [3, 9]: 4.00 to 4.70 and 4.64
- Inhibition of EBNA1 transcription activation [6]: completely blocked
- Reduction in EBV genome copy number ([7]; 10 µM compound): no apparent effect

Structure (SMILES): CC(=O)Nc1ccc(S(=O)(=O)N2c3ccccc3C(C)=CC2(C)C)cc1 [SC11]
- inhibition at 5 µM [4]: ~60%
- Inhibition of Zta-DNA binding in FP assay [1]: no significant inhibition
- pIC50 [1]: 3.39
- Inhibition of Zta-DNA binding in EMSA [5]: no significant inhibition
- pIC50 [3, 8]: 4.04
- pIC50 [3, 9]: 4.00 to 4.70
- Inhibition of EBNA1 transcription activation [6]: completely blocked
- Reduction in EBV genome copy number ([7]; 10 µM compound): 75–90%

Structure (SMILES): NC(=O)NO [HU, hydroxyurea, reference compound]
- Reduction in EBV genome copy number ([7]; 100 µM HU): ~50%

Structure (SMILES): N#CCc1ccc(NC(=O)c2cc(Cl)ccc2NS(=O)(=O)c2cccc3nsnc23)cc1 [SC19]
- Inhibition of Zta transactivation ([4]; 5 µM compound, 48 hrs, transfected HEK293T cells): no detectable inhibitory effect
- Inhibition of Zta-DNA binding in FP assay [1]: no significant inhibition
- pIC50 [1]: ~3.68
- Inhibition of Zta-DNA binding in EMSA [5]: no significant inhibition
- pIC50 [3, 8]: 4.31
- pIC50 [3, 9]: 4.00 to 4.70 and 4.31
- Inhibition of EBNA1 transcription activation [6]: completely blocked
- Reduction in EBV genome copy number ([7]; 10 µM compound): 75–90%
